# Experimental data published in US10954214B2 (Janssen Pharmaceutica NV, priority 2016, dated 2021).
# Experiments:
# [1] = test system: IL10 secretion by TMD8 ABC-DLBCL cells; test: Human IL10 Mesoscale assay (TMD-8); type: cell-based; details: Homo sapiens, TMD8; TMD-8 cells, 24 h
# Method in brief: (§1)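 100,000 cells/well treated with compound in 9 twofold steps from 15 μM to 58.6 nM (0.3% DMSO) for 24 h at 37° C; supernatant cytokine measured by MSD electrochemiluminescence sandwich immunoassay. DMSO wells set maximum signal, BTK inhibitor RN486 (30 nM to 131 pM) set maximum inhibition.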
# [2] = target: full-length MALT1 protein (Strep-MALT1(1-824)-His) (Homo sapiens (Human), UniProt Q9UDY8); test: MALT1 Biochemical Protease Assay (Ac-LRSR-AMC substrate); details: 10 nM FL MALT1, 200 μM Ac-LRSR-AMC, 4 h at RT; read-out: MALT1_Biochemical activity (Ac-LRSR-amc) IC50
# Sequence of full-length MALT1 protein (Strep-MALT1(1-824)-His) (Q9UDY8 whole entry): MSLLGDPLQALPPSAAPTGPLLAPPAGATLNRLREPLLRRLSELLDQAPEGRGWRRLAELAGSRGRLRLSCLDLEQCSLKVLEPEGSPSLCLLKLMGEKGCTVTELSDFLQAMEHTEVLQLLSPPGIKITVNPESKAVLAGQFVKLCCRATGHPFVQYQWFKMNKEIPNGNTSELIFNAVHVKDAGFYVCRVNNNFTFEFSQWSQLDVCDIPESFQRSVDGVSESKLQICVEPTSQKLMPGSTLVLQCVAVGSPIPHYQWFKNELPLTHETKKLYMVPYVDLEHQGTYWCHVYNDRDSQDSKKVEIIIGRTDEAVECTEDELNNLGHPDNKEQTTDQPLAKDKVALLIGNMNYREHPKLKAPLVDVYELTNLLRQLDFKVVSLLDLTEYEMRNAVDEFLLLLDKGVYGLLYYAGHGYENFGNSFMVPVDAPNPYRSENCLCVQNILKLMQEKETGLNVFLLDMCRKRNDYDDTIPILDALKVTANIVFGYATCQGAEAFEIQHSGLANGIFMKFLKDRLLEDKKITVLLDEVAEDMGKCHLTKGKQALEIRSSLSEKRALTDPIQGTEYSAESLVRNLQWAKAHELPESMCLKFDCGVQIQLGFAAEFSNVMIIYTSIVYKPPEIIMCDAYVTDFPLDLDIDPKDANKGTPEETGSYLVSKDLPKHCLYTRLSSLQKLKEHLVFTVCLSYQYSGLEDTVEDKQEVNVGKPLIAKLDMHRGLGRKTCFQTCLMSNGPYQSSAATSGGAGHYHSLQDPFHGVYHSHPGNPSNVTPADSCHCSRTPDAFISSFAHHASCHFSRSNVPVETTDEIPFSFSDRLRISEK
# Method in brief: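 Fluorescence from AMC release off the quenched LRSR substrate was read after a 4 h reaction at RT. Values were normalised to no-enzyme and uninhibited controls and fitted for IC50 and Hill coefficient.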
# [3] = test system: IL6 secretion by TMD8 ABC-DLBCL cells; test: Human IL6 Mesoscale assay (TMD-8); type: cell-based; details: Homo sapiens, TMD8; TMD-8 cells, 24 h
# Method in brief: as §1
# TMD8 cells = test: 4-day proliferation assay, TMD8; type: cell-based; details: Homo sapiens, 96 h, 4 days incubation, CellTiterGLO, read-out: Anti-proliferation: TMD-8 IC50
# Procedure: (§2) To assess anti-proliferative effects, MALT1 inhibitor test compounds were tested in 4-day proliferation assays using three different DLBCL cell lines.
# (§3) Cells should be kept between 0.5-2.5 million cells per mL during culturing and cells should be supplemented every 2-3 days with fresh 50 μM beta-mercaptoenthanol. No beta-mercaptoethanol is used during the proliferation assay. OCI-Ly7 cells were propagated in IMDM (ThermoFisher) supplemented with 10% fetal bovine serum (HyClone), 2 mM L-glutamine (Sigma Aldrich) and 50 μg/mL Gentamycin. Cell passage numbers should not exceed 30 (for OCI-Ly3 cells with passage number lower than 10 were used).
# (§4) 10,000 TMD8, 10,000 OCI-Ly3 or 2,000 OCI-Ly7 cells were seeded in 100 μL media per well and incubated for 4 days at 37° C. and 5% CO2. Cell plating numbers were chosen based on growth curves to ensure linear cell growth. After 4 days of incubation 50 μL CellTiterGLO reagent (Promega) were added to each well and luminescence was measured on the Envision after 10 min of incubation at room temperature.
# (§5) LC=median of the low control values
# (§6) An estimate of the slope of the plot in terms of the Hill coefficient was also obtained.
# OCI-Ly3 cells = test: 4-day proliferation assay, OCI-Ly3; type: cell-based, human; details: Homo sapiens, 96 h, 4 days incubation, CellTiterGLO, read-out: Anti-proliferation: OCI-LY-3 IC50
# Procedure: as §2, §3, §4, §5, §6
SMILES,IC50 [1] [nM],IC50 [2] [nM],IC50 [3] [nM],IC50 (OCI-Ly3 cells) [nM],IC50 (TMD8 cells) [nM]
"Cc1cc(NC(=O)c2cnn(-c3cncc4ccccc34)c2C(F)(F)F)cc(C(F)(F)F)n1 [Cpd 73, 1-(isoquinolin-4-yl)-N-(2-methyl-6-(trifluoromethyl)pyridin-4-yl)-5-(trifluoromethyl)-1H-pyrazole-4-carboxamide]",339,724,417,1950,~11500
"O=C(Nc1cnc(-n2nccn2)c(Cl)c1)c1cnn(-c2ccc(F)c3nccn23)c1C(F)(F)F [Cpd 202, N-(5-chloro-6-(2H-1,2,3-triazol-2-yl)pyridin-3-yl)-1-(8-fluoroimidazo[1,2-a]pyridin-5-yl)-5-(trifluoromethyl)-1H-pyrazole-4-carboxamide]",2950,51,5010,1360,2340
"N#Cc1cc(NC(=O)c2cnn(-c3nccc4ncccc34)c2C(F)(F)F)cnc1-n1nccn1 [Cpd 100, N-(5-cyano-6-(2H-1,2,3-triazol-2-yl)pyridin-3-yl)-1-(1,6-naphthyridin-5-yl)-5-(trifluoromethyl)-1H-pyrazole-4-carboxamide]",155,37,251,1950,~5250
"N#Cc1cncc(NC(=O)c2cnn(-c3cncc4ccccc34)c2C(F)(F)F)c1 [Cpd 82, N-(5-cyanopyridin-3-yl)-1-(isoquinolin-4-yl)-5-(trifluoromethyl)-1H-pyrazole-4-carboxamide]",295,676,240,~1580,6310
"O=C(Nc1cnc(-n2nccn2)c(F)c1)c1cnn(-c2cncc3ccccc23)c1C(F)(F)F [Cpd 61, N-(5-fluoro-6-(2H-1,2,3-triazol-2-yl)pyridin-3-yl)-1-(isoquinolin-4-yl)-5-(trifluoromethyl)-1H-pyrazole-4-carboxamide]",224,102,263,1260,~14100

# These reach a lower IC50 [1]. Values come first.
IC50 [1] [nM],IC50 [2] [nM],IC50 [3] [nM],IC50 (OCI-Ly3 cells) [nM],SMILES,IC50 (TMD8 cells) [nM]
21,17,56,265,"[2H]c1ccc2c(-n3ncc(C(=O)Nc4cnc(-n5nccn5)c(Cl)c4)c3C(F)(F)F)cccc2n1 [Cpd 131, N-(5-chloro-6-(2H-1,2,3-triazol-2-yl)pyridin-3-yl)-1-(2-Dquinolin-5-yl)-5-(trifluoromethyl)-1H-pyrazole-4-carboxamide]",2630
85,30,200,966,"O=C(Nc1cnc(-n2nccn2)c(Cl)c1)c1cnn(-c2nccn3cccc23)c1C(F)(F)F [Cpd 147, N-(5-chloro-6-(2H-1,2,3-triazol-2-yl)pyridin-3-yl)-1-(pyrrolo[1,2-a]pyrazin-1-yl)-5-(trifluoromethyl)-1H-pyrazole-4-carboxamide]",11500
54,19,126,273,"N#Cc1cc(NC(=O)c2cnn(-c3cccc4ncccc34)c2C(F)(F)F)ccc1-n1nccn1 [Cpd 133, N-(3-cyano-4-(2H-1,2,3-triazol-2-yl)phenyl)-1-(quinolin-5-yl)-5-(trifluoromethyl)-1H-pyrazole-4-carboxamide]",3310
74,31,68,140,"N#Cc1cc(NC(=O)c2cnn(-c3cncc4ccccc34)c2C(F)(F)F)ccc1-n1nccn1 [Cpd 59, N-(3-Cyano-4-(2H-1,2,3-triazol-2-yl)phenyl)-1-(isoquinolin-4-yl)-5-(trifluoromethyl)-1H-pyrazole-4-carboxamide]",6760
112,32,105,692,"N#Cc1cc(NC(=O)c2cnn(-c3nccn4cccc34)c2C(F)(F)F)cnc1-n1nccn1 [Cpd 148, N-(5-cyano-6-(2H-1,2,3-triazol-2-yl)pyridin-3-yl)-1-(pyrrolo[1,2-a]pyrazin-1-yl)-5-(trifluoromethyl)-1H-pyrazole-4-carboxamide]",3800
